From PMC8003416, “Modulation of Human Phenylalanine Hydroxylase by 3-Hydroxyquinolin-2(1H)-One Derivatives” (Biomolecules, 2021)

Experiments:
HEK-293T cells = assay: Propidium iodide exclusion assay (membrane integrity); format: cell-based; conditions: 100 μM, 24 h; negative control 1.0 ± 0.1
Experimental: Cytotoxicity of selected 3HQs was assessed in HEK-293T cells using the Alamar Blue assay as a general cell viability endpoint method that monitors the cellular metabolic state, and the propidium iodide (PI) exclusion assay was used to evaluate membrane integrity essentially as described. The 3HQs were tested at a final concentration of 50 and 100 μM (two independent assays; five replicates each). Control assays were performed using 1% DMSO (negative control), or SDS at 1 mg/mL as a positive control of cell death in the PI assay. […] The culture medium was replaced by fresh medium (supplemented as above) containing the different 3HQs to be analyzed. After 24 h incubation, the culture medium was replaced by […] PI (Sigma-Aldrich) in fresh medium (stock solution 1.5 mM in DMSO) and fluorescence was measured (λexc 485 nm, λem 590 nm) in a FLUOstar Omega microplate reader. […] The cells were further incubated for 3 h and fluorescence was measured (λexc 530 nm, λem 590 nm) in a FLUOstar Omega microplate reader (BMG Labtech). The relative PI uptake and cell viability (%) were calculated using Equations (3) and (4), respectively. Relative PI uptake = Fluorescence intensitysample/Fluorescence intensitynegative control(3) Relative cell viability (%) = Fluorescence intensitysample/Fluorescence intensitycontrol × 100(4)

[1] = target: T1, hPAH-RD^1–120 (N-terminal regulatory domain) (Homo sapiens, UniProt P00439); assay: Light scattering assay of hPAH-RD1–120 self-association
T1 construct: consisting solely of the N-terminal regulatory domain (amino acids 1–120); made in house; host or cells: E. coli TB1
T1 sequence (P00439 1-120): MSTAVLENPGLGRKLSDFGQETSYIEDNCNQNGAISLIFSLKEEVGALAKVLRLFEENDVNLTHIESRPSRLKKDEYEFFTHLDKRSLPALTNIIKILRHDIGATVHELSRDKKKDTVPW
Experimental: Self-assembly of the dimeric forms of hPAH-RD^1–120 was followed in real-time at 25 °C upon cleavage of MBP-FXa-hPAH-RD^1–120 with FXa (New England Biolabs) to release the MBP fusion partner. Assays (n = 3) were performed in the absence or presence of tested compounds as described in [17]. Briefly, FXa (at a final ratio 1:150 (w/w) relative to the fusion protein) was added to the reaction mixture containing the MBP-FXa-hPAH-RD^1–120 fusion protein (0.74 mg/mL), 20 mM Na-HEPES, 100 mM NaCl, pH 7.0 and tested 3HQ (100 μM). The increase in absorbance at 350 nm was followed for 180 min on a FLUOstar Omega (BMG Labtech) microplate reader. A shaking step was introduced before each measurement. Appropriate control assays were performed and included: (i) a positive control consisting of MBP-FXa-hPAH-RD^1–120 in the presence of FXa, 1% DMSO and in the absence of compounds; and (ii) a negative control consisting of MBP-FXa-hPAH-RD^1–120 in the absence of FXa and compounds. For all the assays, aliquots of the aggregation reaction were collected at the end of the reaction (180 min) and analyzed by SDS-PAGE to confirm the extent of MBP cleavage by FXa. In addition, the effect of tested compounds on FXa activity was monitored using the synthetic FXa substrate Boc–Ile–Glu-Gly–Arg–AMC (t-(Butyloxycarbonyl)-isoleucylglutamylglycylarginyl-7-amido-4-methylcoumarin; from Bachem). Assays (n = 3) were performed in a 96-well plate, in a final volume of 200 μL containing 20 mM Na-HEPES, 100 mM NaCl, pH 7.0, 5 μg/mL of FXa, 50 μM of Boc–Ile-Glu–Gly–Arg–AMC and 100 μM of 3HQ derivatives. Fluorescence was measured in real-time (λexc 360 nm and λem 460 nm) during 30 min, at 25 °C. Controls were performed using substrate alone with 1% DMSO (negative control) and FXa with no compounds and 1% DMSO (positive control).

effect on hPAH-RD^1–120 aggregation ([1]; 1 mM L-Phe)	SMILES	relative PI uptake (HEK-293T cells)	effect on hPAH-RD^1–120 aggregation ([1]; 100 μM, 180 min, 25 °C)
–	COC(=O)CC[C@H](NC(=O)c1c(O)c(=O)[nH]c2ccc(OC(F)(F)F)cc12)C(=O)OC [Compound 9]	1.0 ± 0.0	–
–	COC(=O)CNC(=O)c1c(O)c(=O)[nH]c2ccc(OC(F)(F)F)cc12 [Compound 11]	1.0 ± 0.1	no direct evidence of a direct binding to hPAH-RD^1–120 was obtained
completely blocked it	N[C@@H](Cc1ccccc1)C(=O)O [L-Phe, L-phenylalanine, reference compound]	–	only slightly prevented hPAH-RD^1–120 aggregation
